Test [1] relates to IL-1β induced IL-6 secretion by U373 astrocytoma cells. The experiment in a line: IL-1β induced IL-6 secretion by U373 astrocytoma cells (ELISA). The test is classed as cell-based. Conditions: IL-1β 10 U/ml, 6 hours, inhibitor 1250, 2500 or 5000 nM.
Test [2] relates to IL-1β induced IL-6 secretion by human primary astrocytes. The experiment in a line: IL-1β induced IL-6 secretion by human primary astrocytes (ELISA). It is filed as cell-based. Conditions: IL-1β 10 U/ml, 6 hours, inhibitor 1250, 2500 or 5000 nM. The source says:
IL-1β has been implicated in both the initiation and propagation of neuroinflammatory changes seen in Alzheimer's disease patients. One of the main mechanisms of IL-1β is the induction of interleukin 6 (IL-6) secretion, which propagates the neuroinflammatory response in Alzheimer's disease patients. Using primary human adult astrocytes this inflammatory response as well as modulators (i.e. potential drugs for therapy) can be studied in vitro. […] In the presence of IL-1β (10 U/ml) these cells secrete IL-6 in the culture supernatant, which can be measured by ELISA. […] Cells were incubated with or without IL-1β (10 U/ml) for 6 hours in the presence of different concentration of IRAK1/4 inhibitor I (1250, 2500, or 5000 nM). IL-6 levels (pg/ml) in the culture supernatants were determined by ELISA. Shown are mean levels +/− S.D. of three replicate stimulations.

This note sets out measurements from patent US20110071052A1, “MEASUREMENT OF PROTEIN KINASE ACTIVITY IN CEREBROSPINAL FLUID FOR DIAGNOSIS OF NEUROLOGICAL AND PSYCHIATRIC DISORDERS” (priority 2008, published 2011).

Regarding `O=C(Nc1nc2ccccc2n1CCN1CCOCC1)c1cccc([N+](=O)[O-])c1` [IRAK1/4 inhibitor I], the “IL-6 secretion in culture supernatant” value in test [1] is on record as “dose-dependently inhibits IL-6 secretion”; in test [1] (listed as IRAK1/4 inhibitor), “reduced”; in test [2] it was “dose-dependently inhibits IL-6 secretion”; in test [2] (listed as IRAK1/4 inhibitor), “reduced”.
